Laboratory results taken from patent US7419976B2, “Diazepanes derivatives useful as IFA inhibitors” (Novartis AG, priority 2003, dated 2008).

How the values were obtained:
[1] = system: allergic contact dermatitis in mice; experiment: Test Example: inhibition of allergic contact dermatitis (ACD) in vivo, pinnal weight and MPO activity; details: oral single dose 0.01-10.0 mg/kg
Experimental: Groups of 8 female mice are sensitized epicutaneously with 50 μl of 2% oxazolone on the shaved ventral abdomen (day 1) and challenged with 10 μl of 0.2% oxazolone on the inner surface of the right ear (day 8). The unchallenged left ears serve as normal controls and dermatitis is evaluated from the difference in pinnal weight which is taken as a measure of inflammatory swelling (day 9). In addition, activity of myeloperoxidase (MPO) serving as a measure of leukocyte influx in ear homogenates are determined as described by Bradley et al., J. Invest. Dermatol; 78:206-209 (1982). The animals are treated orally 2 hours after challenge with the test compound of example 10. Activity is calculated as the percentage of inhibition of inflammatory auricular swelling and of MPO activity relative to animals treated with the vehicle alone. For comparison mice are treated intraperitoneally with 100 μl monoclonal anti-mouse LFA-1 antibody 1 hour before challenge and evaluated as described.

[2] = molecular target: T1, LFA-1/ICAM-1 (Homo sapiens, UniProt P20701); experiment: Cell free assay: binding of soluble human ICAM-1 to immobilized human LFA-1; details: immobilized human LFA-1, biotinylated ICAM-1, read-out: IC50, inhibition of adhesion of LFA-1 to ICAM-1
T1 construct: endogenous in cells; ICAM-1-Cκ fusion: made in house in the baculovirus system
Experimental: The assay determines the binding of soluble human ICAM-1 to immobilized human LFA-1. LFA-1 is purified from JY cells, a human lymphoblastoid B cell-line, by immunoaffinity chromatography analogously as described by Dustin et al., J. Immunol. 148, 2654-2663, 1992. ICAM-1 mouse Cκ fusion protein (ICAM-1) is produced using the baculovirus system as described by Weitz-Schmidt et al., Anal. Biochem. 238, 184-190, 1996. Purified LFA-1 is diluted 1:20 in phosphate buffered saline (PBS) containing 2 mM MgCl2, pH 7.4 and coated onto microtiter plates (Nunc) at 37° for 3 hours. Plates are blocked with 1% heat-treated bovine serum albumin in PBS for 2 hours at 37° followed by a washing step using PBS, 2 mM MgCl2, 1% fetal calf serum, pH 7.4 (assay buffer). Compounds of the present invention (10 mM solution in DMSO) are diluted in assay buffer and added to the plates. Biotinylated recombinant ICAM-1 in assay buffer (6 μg/ml) is added and allowed to bind at 37° for one hour. After incubation, wells are washed with assay buffer. Streptavidin-peroxidase diluted 1:5000 in assay buffer is added and incubated for 45 min at 37°. […] The reaction is stopped after 20 minutes and bound ICAM-1 is determined by measuring the optical density at 405 nm in a microplate reader.

[3] = system: allergic contact dermatitis in NMRI mice; experiment: Allergic contact dermatitis (ACD) in vivo test system, oxazolone, auricular weight; details: p.o., 0.03 mg/kg, 2 hours after challenge
Experimental: Groups of 8 female NMRI mice are sensitized on the shaved abdomen with 50 μl of oxazolone (2% in acetone) and challenged with 10 μl of 0.2% oxazolone on the inner surface of the right ear 7 days later. The unchallenged left ears serve as normal controls and dermatitis is evaluated from the individual differences in auricular weights, which are taken as a measure of inflammatory swelling 24 hours after the challenge. Dermatitis is evaluated in test- and control groups. The test groups are treated with the test compounds orally (2 hours after challenge), the controls are treated similarly with the vehicles alone. For oral administration the compounds are administered in an oil in H2O emulsion. The data of the test- and the vehicle-treated control groups are statistically analysed by ANOVA followed by Dunnet T-test (normal distribution or data) or by H and U-test, respectively. […] For example, compound of Example 14 has an inhibiting effect in this assay of >30% when administered p.o. at a dose of 0.03 mg/kg.

T1 sequence (P20701 26-1170): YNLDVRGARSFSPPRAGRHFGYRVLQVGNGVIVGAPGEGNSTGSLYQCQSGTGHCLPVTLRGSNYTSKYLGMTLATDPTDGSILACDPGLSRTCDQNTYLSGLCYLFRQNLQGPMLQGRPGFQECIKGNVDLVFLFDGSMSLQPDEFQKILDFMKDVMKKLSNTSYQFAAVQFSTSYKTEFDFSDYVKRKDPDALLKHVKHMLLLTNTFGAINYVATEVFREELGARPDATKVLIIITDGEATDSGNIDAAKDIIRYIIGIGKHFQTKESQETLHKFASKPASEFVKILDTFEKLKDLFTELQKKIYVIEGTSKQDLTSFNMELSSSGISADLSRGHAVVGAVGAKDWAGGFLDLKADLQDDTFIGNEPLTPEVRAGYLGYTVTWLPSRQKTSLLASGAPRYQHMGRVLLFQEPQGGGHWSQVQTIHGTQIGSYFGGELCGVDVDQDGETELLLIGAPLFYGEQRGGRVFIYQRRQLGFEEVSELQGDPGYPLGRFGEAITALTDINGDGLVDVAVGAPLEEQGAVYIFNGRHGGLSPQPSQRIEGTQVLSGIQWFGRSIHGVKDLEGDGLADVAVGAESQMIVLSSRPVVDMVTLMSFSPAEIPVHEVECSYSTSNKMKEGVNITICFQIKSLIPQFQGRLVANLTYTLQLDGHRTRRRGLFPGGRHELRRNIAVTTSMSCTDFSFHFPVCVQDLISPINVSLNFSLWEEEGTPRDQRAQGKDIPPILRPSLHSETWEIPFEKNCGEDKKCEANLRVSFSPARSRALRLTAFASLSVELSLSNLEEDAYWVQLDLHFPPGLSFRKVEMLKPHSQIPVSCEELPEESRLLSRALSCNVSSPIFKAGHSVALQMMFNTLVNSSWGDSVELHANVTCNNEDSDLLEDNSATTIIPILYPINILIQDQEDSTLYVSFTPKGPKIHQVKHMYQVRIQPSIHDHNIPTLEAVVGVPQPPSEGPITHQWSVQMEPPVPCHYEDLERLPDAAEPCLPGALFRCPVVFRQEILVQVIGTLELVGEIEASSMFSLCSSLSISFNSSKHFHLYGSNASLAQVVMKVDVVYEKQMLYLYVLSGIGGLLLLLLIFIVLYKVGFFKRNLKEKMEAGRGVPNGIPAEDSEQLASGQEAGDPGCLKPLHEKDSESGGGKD
T1 sequence (P05107 23-769 partner): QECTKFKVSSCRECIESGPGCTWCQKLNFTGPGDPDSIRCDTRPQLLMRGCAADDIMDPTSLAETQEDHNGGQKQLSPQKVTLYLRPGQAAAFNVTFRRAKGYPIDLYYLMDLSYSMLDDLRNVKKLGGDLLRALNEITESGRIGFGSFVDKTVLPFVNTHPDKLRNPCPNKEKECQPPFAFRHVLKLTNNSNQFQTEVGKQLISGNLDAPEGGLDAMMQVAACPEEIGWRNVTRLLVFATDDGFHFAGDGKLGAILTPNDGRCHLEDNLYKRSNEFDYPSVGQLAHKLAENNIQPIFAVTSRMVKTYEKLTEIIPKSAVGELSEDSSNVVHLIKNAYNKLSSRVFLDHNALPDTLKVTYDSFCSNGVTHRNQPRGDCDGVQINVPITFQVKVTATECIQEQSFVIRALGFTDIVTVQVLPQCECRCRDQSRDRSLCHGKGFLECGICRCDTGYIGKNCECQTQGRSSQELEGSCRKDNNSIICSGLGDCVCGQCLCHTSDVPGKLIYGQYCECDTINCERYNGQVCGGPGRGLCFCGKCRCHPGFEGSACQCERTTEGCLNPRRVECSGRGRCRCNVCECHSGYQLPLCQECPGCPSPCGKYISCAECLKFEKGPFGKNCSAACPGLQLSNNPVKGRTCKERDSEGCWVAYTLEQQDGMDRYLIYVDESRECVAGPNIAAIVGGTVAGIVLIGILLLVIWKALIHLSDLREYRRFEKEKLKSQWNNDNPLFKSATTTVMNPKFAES

Row | Compound | inhibition of the inflammatory response ([1]; 2 hours after challenge) | inhibition of MPO activity versus inhibition of swelling ([1]; ear homogenates) | IC50 [2] [nM] | inhibiting effect in allergic contact dermatitis (auricular swelling) [3] [%]
1 | C[C@@H]1CCN([C@H](Cc2cccc3ccccc23)C(N)=O)C(=O)[C@H](c2ccc(F)c(Cl)c2)N1C(=O)Cc1ccc2ncccc2c1 [Example 10, (R)-2-[(3S,5R)-3-(3-Chloro-4-fluoro-phenyl)-5-methyl-2-oxo-4-(2-quinolin-6-yl-acetyl)-[1,4]diazepan-1-yl]-3-naphthalen-1-yl-propionamide] | 40-50% | Inhibition of swelling compared with inhibition of MPO activity is observed |  | 
2 | C[C@@H]1CCN([C@H](Cc2cccc3ccccc23)C(N)=O)C(=O)[C@H](c2cccc(Cl)c2)N1C(=O)Cc1ccc2c(c1)OCO2 [Example 14, (R)-2-[(3S,5R)-4-(2-Benzo[1,3]dioxol-5-yl-acetyl)-3-(3-chloro-phenyl)-5-methyl-2-oxo-[1,4]diazepan-1-yl]-3-naphthalen-1-yl-propionamide] |  |  | 90 | > 30
3 | CC1CCN(C(Cc2cccc3ccccc23)C(N)=O)C(=O)C(c2cccc(F)c2)N1C(=O)Cc1ccc2c(c1)OCO2 [Example 13, (R)-2-[4-(2-Benzo[1,3]dioxol-5-yl-acetyl)-3,5-cis-3-(3-fluoro-phenyl)-5-methyl-2-oxo-[1,4]diazepan-1-yl]-3-naphthalen-1-yl-propionamide] |  |  | 430 | 
